Experimental data: patent US20190151304A1, “METHODS AND PHARMACEUTICAL COMPOSITIONS FOR THE TREATMENT OF AUTOIMMUNE INFLAMMATORY” (INSERM (INSTITUT NATIONAL DE LA SANTÉ ET DE LA RECHERCJAE …, priority 2016, published 2019)
No end group written: not given here.

Legend:
DSS-induced colitis mice = DSS-induced colitis mice model (Disease Activity Index, colon length); assay type: in vivo, Balb/c mice
Excerpt: FIG. 2: OXA ameliorates the DAI (weight and colitis score) of DSS-induced colitis mice. Mice were orally treated with 5% DSS for 7 days in the presence or in the absence of daily intraperitoneal injection of OxA (0.22 μmoles/kg). Left, determination of gain or loss of weight in the absence of DSS treatment (Control,▴), in the presence of DSS treatment (DSS,▪) and in the presence of DSS associated to OxA treatment (DSS+OxA,●). Right, evaluation of Disease Activity Index (DAI) scored by measuring weight, length of colon, diarrhea and blood presence in the stool in DSS untreated control mice (Control,A), in DSS treated mice (DSS,▪) and in DSS treated mice associated to OxA treatment (DSS+OxA,●).
FIG. 14: Effect of daily ip inoculation of OxA, Suvorexant and Almorexant on the length of colon from DSS—(dextran sulfate sodium) treated mice mimicking the acute ulcerative colitis disease. A. Mice were treated with 5% (w/v) DSS in drinking water and daily injected with 20 μg of OxA (OXA IP), 20 μg of Suvorexant (Suvo) or 20 μg of Almorexant (Almo). Control (wt) or treated DSS mice (DSS) were daily injected with 100 μl PBS. After one week of treatment, mice were sacrificed and the length of colon which represented a good marker of inflammation state, was measured. […] B. quantification of colon length from 5 different DSS-treated mice injected with OxA (DSS+OXA IP), Almorexant (DSS+Almo), Suvorexant (DSS+Suvo) or not injected (WT and DSS). NS, no significant; *, p<0.05; ** p<0.001
Based on these observations, we have investigated the effect of Orexin A (OxA) on acute inflammation in mice treated with Dextran Sulfate Sodium (DSS). OxA was preferentially chosen in these experiments since the presence of two disulphide bridges confers it more stability. DSS induces acute colitis characterized by weight loss, bloody diarrhea, intestinal ulcerations and infiltrations with granulocytes.
DSS-induced colitis mice models: Balb/c mice were orally treated by 5% (w/v) of Dextran Sulfate Sodium (DSS) for 7 days. Orexin treatment was carried out in DSS treated mice by daily intraperitoneal injection of OxA (0.22 μmoles/kg) for 7 days. Weight and colitis symptoms (diarrhea, blood in the stool . . . ) for each mouse was daily measured. After 7 days of treatment, animals were sacrificed and colons were resected to further analyses (size, histological aspect, cytokine assays).
The inventors have thus investigated the effect of daily intraperitoneal inoculation of OxA, Suvorexant and Almorexant in the experimental context of EXAMPLE 1 (colitis). In particular they investigated the effects of the drugs on the length of colon from DSS-(dextran sulfate sodium) treated mice mimicking the acute ulcerative colitis disease. […]

[1] = test system: cerulein-induced chronic pancreatitis mice; experiment: Chronic pancreatitis mice model induced by cerulein; assay type: in vivo
Excerpt: FIG. 9. Pancreatic lymphocyte infiltration determined by immunostaining of CD45+ cells. Values were expressed as percentage of stained surface. **, p<0.01
FIG. 10: Amylase activity in blood samples of control mice, cerulein-induced mice and cerulein-induced mice treated with OxA. *, p<0.05; ***, p<0.001 and NS, non significant.
We have investigated the effect of orexin A (OxA) on chronic pancreatitis mice model induced by supraphysiologic doses of cerulein (3 intraperitoneal injections/week at 100 μg/kg). […] In mice treated by OxA (2 intraperitoneal injections/week at 1.40 μmol/Kg) the lesions induced by cerulein improved. OxA-treated mice had lower number of acino-ductal metaplasia.

OX1R = target: T1, OX1R (Homo sapiens, UniProt O43613, A280G); experiment: Ca2+ mobilization assay in HEK-OX1R cells (FluoForte); assay type: cell-based; details: 1 μM
T1 construct: HEK cells expressing recombinant native OX1R (HEK-OX1R); expressed in transfected cells; host or cells: HEK cells (HEK-OX1R)
T1 sequence (O43613 1-425 A280G): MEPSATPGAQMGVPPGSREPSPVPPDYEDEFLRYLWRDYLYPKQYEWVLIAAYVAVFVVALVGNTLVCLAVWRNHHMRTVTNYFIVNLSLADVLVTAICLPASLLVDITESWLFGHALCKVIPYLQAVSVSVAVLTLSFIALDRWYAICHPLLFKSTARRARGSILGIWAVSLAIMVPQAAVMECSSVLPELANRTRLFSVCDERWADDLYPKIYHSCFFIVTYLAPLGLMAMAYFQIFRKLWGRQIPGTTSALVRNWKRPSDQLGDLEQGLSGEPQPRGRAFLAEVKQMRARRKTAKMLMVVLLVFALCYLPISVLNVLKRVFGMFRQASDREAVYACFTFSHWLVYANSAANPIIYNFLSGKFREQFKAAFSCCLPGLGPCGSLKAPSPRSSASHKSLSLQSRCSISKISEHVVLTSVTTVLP

[2] = test system: colon adenocarcinoma HT-29 cells; experiment: Cells growth determination, HT-29 cells; assay type: cell-based; details: 48 hr; OxA 0.1 μM, SB408124 increasing concentrations
Description: FIG. 12: Determination of the inhibition of cellular growth of HEK-OX1R cells and colon adenocarcinoma cells (HT-29) induced by 0.1 μM of OxA or various concentrations of SB408124 antagonist. HEK-OX1R cells (black column) and HT-29 cells (white column) were incubated with 0.1 μM of OxA and indicated increasing concentration of SB408124, and cells were counted after 48 hr incubation. Results are expressed as the percentage of total viable cells.
Cells growth determination and apoptosis assay: HEK-OX1R cells or colon adenocarcinoma HT-29 cells were seeded, grown and maintained at 37° C. in a humidified 5% CO2/air incubator. After 24 hr culture, cells were treated with or without Orexin-A peptide or SB408124 antagonist, previously dissolved in DMSO, to be tested at the concentration indicated in the figure legends. After 48 hr of treatment, adherent cells were harvested by Trip1E (Life Technologies, Saint Aubin, France) and manually counted. Apoptosis was determined using the Guava PCA system and the Guava nexin kit.

OxA: neuropeptide, endogenous ligand of OX1R and OX2R, with two disulphide bridges (QPLPDCCRQKTCSCRLYELLHGAGNHAAGILTL; disulfide (positions not given here); ends not checked; also: two disulphide bridges, pairing not given here; UniProt O43612 34-66, looked up)
Protection from DSS induced acute ulcerative colitis (length of colon) (DSS-induced colitis mice; 5% DSS in drinking water, 20 μg daily ip, one week): protect mice from DSS induced acute ulcerative colitis disease
Disease Activity Index (DAI) scored by measuring weight, length of colon, diarrhea and presence of blood in the stool (DSS-induced colitis mice; 5% DSS orally 7 days, daily intraperitoneal OxA 0.22 μmoles/kg): ameliorates
Pancreatic lymphocyte infiltration (anti-CD45 immunohistochemistry) ([1]; OxA 1.40 μmol/Kg, quantitative imaging analysis, 18% in OxA-untreated mice): 6 % of the pancreatic surface
Pancreatic fibrosis on Picrosirius staining ([1]; OxA 1.40 μmol/Kg, quantitative imaging analysis, 40% in OxA-untreated mice): 12 % of the pancreatic surface
Number of acino-ductal metaplasia ([1]; OxA 2 intraperitoneal injections/week at 1.40 μmol/Kg): lower number
Lesions induced by cerulein (histological analysis of the pancreas) ([1]; OxA 2 intraperitoneal injections/week at 1.40 μmol/Kg, 3 weeks of cerulein): improved
Amylase activity in blood samples ([1]; cerulein-induced mice treated with OxA): significantly reduced
Ca2+ mobilization induced in HEK-OX1R cells (OX1R): large and transient
Inhibition of cellular growth of HT-29 cells [2]: strong inhibition
